The text below walks through data of US11926628B2 (Gilead Sciences, Inc., priority 2021, dated 2024).

The subject of assay [1] is Jurkat NFκB-luciferase cells. The assay is described as follows: Jurkat NFκB-Luciferase Assay. To be noted: Homo sapiens; Jurkat NFκB-luciferase cells activated with anti-CD3 antibody (OKT3), 2.5 hrs at 37° C.; geometric mean; read-out: DGK NFKb Luciferase EC50. It counts as cell-based. A digest of the protocol:
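Jurkat NFκB-luciferase reporter cells stimulated on plate-bound anti-CD3 (5 ug/ml coating) with compound, 2.5 hrs at 37° C then 30 min at 25° C; luminescence read with One-Glo Ex. Normalized to DMSO (basal) and 1 micromolar compound (maximum) controls; EC50 from four-parameter fit, geometric mean across experiments.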

Assay [2] has as its target human DGKα (Homo sapiens (Human), UniProt P23743). The experiment in a line: DGKα Biochemical Activity Assay (ADP-Glo). The conditions noted are these: recombinant DGKα 1 nM, 100 μM ATP, 18:1 DAG/POPS/octylglucoside micelles, 1 hour at 25° C.; geometric mean; read-out: HTBS DGKa 1X ATP KM IC50. A digest of the protocol:
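Recombinant DGKα (1 nM final) was preincubated with compound for 15 min, then reacted for 1 h at 25 °C with 100 μM ATP and octylglucoside micelles of 0.85 mM 18:1 DAG and 6.75 mM POPS in pH 7.2 MOPS with 5 mM MgCl2. ADP formed was read by ADP-Glo luminescence. IC50 came from four-parameter fits normalized to DMSO and 50 μM CU3, and values were geometric means.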
For orientation: ADP-Glo turns the ADP formed in a reaction into a luminescent signal.

pEC50, pIC50: −log10 of the molar value.

Chain of human DGKα (P23743 whole entry): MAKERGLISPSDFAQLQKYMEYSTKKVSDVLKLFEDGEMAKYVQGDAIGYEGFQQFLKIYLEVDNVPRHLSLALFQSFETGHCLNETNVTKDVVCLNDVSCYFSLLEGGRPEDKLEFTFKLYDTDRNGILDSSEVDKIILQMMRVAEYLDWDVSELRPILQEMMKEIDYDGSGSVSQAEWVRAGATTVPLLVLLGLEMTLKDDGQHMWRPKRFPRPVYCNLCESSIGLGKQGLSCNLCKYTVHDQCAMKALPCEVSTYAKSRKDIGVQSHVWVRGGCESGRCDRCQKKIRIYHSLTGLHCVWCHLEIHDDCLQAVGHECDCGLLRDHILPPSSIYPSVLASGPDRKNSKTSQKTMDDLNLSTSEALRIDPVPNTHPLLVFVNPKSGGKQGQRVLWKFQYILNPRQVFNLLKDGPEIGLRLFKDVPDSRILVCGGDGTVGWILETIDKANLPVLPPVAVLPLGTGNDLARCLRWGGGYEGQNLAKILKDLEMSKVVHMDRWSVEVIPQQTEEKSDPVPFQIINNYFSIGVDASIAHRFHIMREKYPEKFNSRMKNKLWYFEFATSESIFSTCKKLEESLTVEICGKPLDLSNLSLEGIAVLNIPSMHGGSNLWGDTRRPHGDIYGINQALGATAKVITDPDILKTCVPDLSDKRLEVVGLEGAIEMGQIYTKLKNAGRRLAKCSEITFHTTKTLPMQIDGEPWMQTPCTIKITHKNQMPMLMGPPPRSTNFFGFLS

Take `COc1ccc2c(N(C)c3cccc(-c4ccc(S(F)(F)(F)(F)F)cc4)c3)nc3nncn3c2n1` [Example 115, 2-methoxy-N-methyl-N-(4′-(pentafluoro-16-sulfaneyl)-[1,1′-biphenyl]-3-yl)pyrido[3,2-e][1,2,4]triazolo[4,3-a]pyrimidin-5-amine]: the pEC50 (usually the EC50 on a negative log10 scale, so that one unit is a factor of ten) in assay [1] is 8.76. In assay [2], the negative logarithm of the IC50 (pIC50) (as a rule, the negative decadic logarithm of the IC50, by convention in mol/L) was 6.35.

Consider `CC(C)(O)C#Cc1cccc2c1CCCN2c1nc2nncn2c2ncc(F)cc12` [Example 149, 4-(1-(3-fluoropyrido[3,2-e][1,2,4]triazolo[4,3-a]pyrimidin-5-yl)-1,2,3,4-tetrahydroquinolin-5-yl)-2-methylbut-3-yn-2-ol], for which the pEC50 in assay [1] is 7.92. Besides, the pIC50 in assay [2] is 8.06.

`CNc1ccc2c(N(C)c3cccc(C#CC(C)(C)C)c3)nc3nncn3c2n1` [Example 118, N5-(3-(3,3-dimethylbut-1-yn-1-yl)phenyl)-N2,N5-dimethylpyrido[3,2-e][1,2,4]triazolo[4,3-a]pyrimidine-2,5-diamine]: in assay [1], the negative-log EC50 (pEC50) is 8.24. Moreover, the negative logarithm of the IC50 (pIC50) in assay [2] is 6.98.

Turning to `CCC1(C#Cc2cccc(N(C)c3nc4nncn4c4ncc(F)cc34)c2)CC1` [Example 151, N-[3-[2-(1-ethylcyclopropyl)ethynyl]phenyl]-11-fluoro-N-methyl-2,4,5,7,13-pentazatricyclo[7.4.0.02,6]trideca-1(13),3,5,7,9,11-hexaen-8-amine], in assay [1], the pEC50 was 8.42. Besides, the negative-log IC50 (pIC50) in assay [2] is 7.29.

Regarding `CN(c1cc(F)cc(C#CC2(C(F)(F)F)CC2)c1)c1nc2nnnn2c2ccc(F)cc12` [Example 16], the pEC50 in assay [1] is 8.49. Also, the negative logarithm of the IC50 (pIC50) in assay [2] is 7.65.

On to `CCN(c1cc(F)cc(C#CC(C)(C)C(F)(F)F)c1)c1nc2nncn2c2cncc(F)c12` [Example 88, N-ethyl-10-fluoro-N-[3-fluoro-5-(4,4,4-trifluoro-3,3-dimethyl-but-1-ynyl)phenyl]-2,4,5,7,12-pentazatricyclo[7.4.0.02,6]trideca-1(13),3,5,7,9,11-hexaen-8-amine], for which the pEC50 in assay [1] is 8.91. The negative-log IC50 (pIC50) in assay [2] is 7.39.

For `Fc1cnc2c(c1)c(N1CCCc3c(C#CC4(C(F)F)CC4)cccc31)nc1nncn12` [Example 108, 5-(5-((1-(difluoromethyl)cyclopropyl)ethynyl)-3,4-dihydroquinolin-1(2H)-yl)-3-fluoropyrido[3,2-e][1,2,4]triazolo[4,3-a]pyrimidine], the negative logarithm of the EC50 (pEC50) in assay [1] is 8.51. Also, the negative-log IC50 (pIC50) in assay [2] is 8.46.

`Cc1nnc2nc(N3CCCOc4c(Br)cccc43)c3c(F)cncc3n12` [Example 75, 9-bromo-5-(6-fluoro-1-methylpyrido[4,3-e][1,2,4]triazolo[4,3-a]pyrimidin-5-yl)-2,3,4,5-tetrahydrobenzo[b][1,4]oxazepine]: the pEC50 in assay [1] was 7.32. Also, the pIC50 in assay [2] was 6.45.

On to `Cc1ccc2c(N(C)c3cccc(-c4ccc(C5CC5)cc4)c3)nc3nncn3c2n1` [Example 123, N-(4′-cyclopropyl-[1,1′-biphenyl]-3-yl)-N,2-dimethylpyrido[3,2-e][1,2,4]triazolo[4,3-a]pyrimidin-5-amine], for which the negative-log EC50 (pEC50) in assay [1] was 8.69. Also, the negative-log IC50 (pIC50) in assay [2] is 7.90.

Regarding `CCN(c1cc(F)cc(C#CC2(C(F)(F)F)CC2)c1)c1nc2nncn2c2cncc(F)c12` [Example 90, N-ethyl-10-fluoro-N-[3-fluoro-5-[2-[1-(trifluoromethyl)cyclopropyl]ethynyl]phenyl]-2,4,5,7,12-pentazatricyclo[7.4.0.02,6]trideca-1(13),3,5,7,9,11-hexaen-8-amine], in assay [1], the negative logarithm of the EC50 (pEC50) is 9.15. The pIC50 in assay [2] is 7.92.

For `Cc1nnc2nc(N3CCOCc4c(C#CC5(C)CC5)cccc43)c3ccc(C(F)(F)F)nc3n12` [Example 140, 1-(9-methyl-2-(trifluoromethyl)pyrido[3,2-e][1,2,4]triazolo[4,3-a]pyrimidin-5-yl)-6-((1-methylcyclopropyl)ethynyl)-1,2,3,5-tetrahydrobenzo[e][1,4]oxazepine], in assay [1], the pEC50 was 8.63. In addition, the negative logarithm of the IC50 (pIC50) in assay [2] was 7.94.

On to `CC1(C#Cc2cccc3c2CCCN3c2nc3nncn3c3cccnc23)CC1` [Example 24, 8-[5-[2-(1-methylcyclopropyl)ethynyl]-3,4-dihydro-2H-quinolin-1-yl]-2,4,5,7,10-pentazatricyclo[7.4.0.02,6]trideca-1(13),3,5,7,9,11-hexaene], for which the pEC50 in assay [1] was 8.56. The pIC50 in assay [2] is 7.77.

Take `Cc1nnc2nc(N(CC(F)F)c3cc(F)cc(C#CC4(C(F)(F)F)CC4)c3)c3ncccc3n12` [Example 18, N-(2,2-difluoroethyl)-N-(3-fluoro-5-((1-(trifluoromethyl)cyclopropyl)ethynyl)phenyl)-1-methylpyrido[2,3-e][1,2,4]triazolo[4,3-a]pyrimidin-5-amine]: in assay [1], the pEC50 was 8.33. Further, in assay [2], the pIC50 was 7.19.

Consider `CC(C)(O)C#Cc1cc(F)cc(N(CC(F)F)c2nc3nncn3c3cccnc23)c1` [Example 19, 4-(3-((2,2-difluoroethyl)(pyrido[2,3-e][1,2,4]triazolo[4,3-a]pyrimidin-5-yl)amino)-5-fluorophenyl)-2-methylbut-3-yn-2-ol], for which the negative-log EC50 (pEC50) in assay [1] is 7.32. Moreover, in assay [2], the pIC50 was 7.17.

Regarding `CN(c1cccc(-c2ccc(N3CCCS3(=O)=O)cc2)c1)c1nc2nnnn2c2cc(Cl)ccc12` [Example 5, 2-(3′-((8-chlorotetrazolo[1,5-a]quinazolin-5-yl)(methyl)amino)-[1,1′-biphenyl]-4-yl)isothiazolidine 1,1-dioxide], the pEC50 in assay [1] is 8.38. Moreover, in assay [2], the negative logarithm of the IC50 (pIC50) was 7.55.

As to `CC(C)(O)C#Cc1cc(N(CC(F)F)c2nc3nncn3c3cncc(F)c23)ccn1` [Example 54, 4-(4-((2,2-difluoroethyl)(6-fluoropyrido[4,3-e][1,2,4]triazolo[4,3-a]pyrimidin-5-yl)amino)pyridin-2-yl)-2-methylbut-3-yn-2-ol], the negative logarithm of the EC50 (pEC50) in assay [1] was 6.00. Further, the pIC50 in assay [2] was 6.74.

For the molecule `Cc1nnc2nc(N3CCCc4c(C#CC5(C)CC5)cncc43)c3c(F)cncc3n12` [Example 38, 6-fluoro-1-methyl-5-(5-((1-methylcyclopropyl)ethynyl)-3,4-dihydro-1,7-naphthyridin-1(2H)-yl)pyrido[4,3-e][1,2,4]triazolo[4,3-a]pyrimidine], the negative logarithm of the EC50 (pEC50) in assay [1] was 8.22. The negative logarithm of the IC50 (pIC50) in assay [2] is 7.75.

As to `CN(c1cc(F)cc(-c2cnc(C3CC3)cn2)c1)c1nc2nnnn2c2ccc(F)cc12` [Example 6, N-(3-(5-cyclopropylpyrazin-2-yl)-5-fluorophenyl)-7-fluoro-N-methyltetrazolo[1,5-a]quinazolin-5-amine], the pEC50 in assay [1] is 8.88. Besides, the pIC50 in assay [2] was 7.80.

Take `Cc1ccc2c(N(C)c3cccc(-c4ccc(C(F)F)cc4)c3)nc3nncn3c2n1` [Example 124, N-(4′-(difluoromethyl)-[1,1′-biphenyl]-3-yl)-N,2-dimethylpyrido[3,2-e][1,2,4]triazolo[4,3-a]pyrimidin-5-amine]: the pEC50 in assay [1] is 8.13. The negative-log IC50 (pIC50) in assay [2] was 7.91.

In the case of `Cc1nnc2nc(N3CCCc4c(C#CC5(C(F)(F)F)CC5)cccc43)c3ncccc3n12` [Example 23, 3-methyl-8-[5-[2-[1-(trifluoromethyl)cyclopropyl]ethynyl]-3,4-dihydro-2H-quinolin-1-yl]-2,4,5,7,10-pentazatricyclo[7.4.0.02,6]trideca-1(13),3,5,7,9,11-hexaene], the pEC50 in assay [1] is 7.87. In assay [2], the negative-log IC50 (pIC50) was 7.38.

`COc1ccc2c(N(C)c3cccc(-c4ccc(C(F)F)cc4)c3)nc3nncn3c2n1` [Example 130, N-(4′-(difluoromethyl)-[1,1′-biphenyl]-3-yl)-2-methoxy-N-methylpyrido[3,2-e][1,2,4]triazolo[4,3-a]pyrimidin-5-amine]: the negative-log EC50 (pEC50) in assay [1] was 8.60. The pIC50 in assay [2] was 7.26.

Turning to `CN(c1cccc(-c2cnc(C3CC3)cn2)c1)c1nc2nnnn2c2cc(Cl)ccc12` [Example 9, 8-chloro-N-(3-(5-cyclopropylpyrazin-2-yl)phenyl)-N-methyltetrazolo[1,5-a]quinazolin-5-amine], the negative-log EC50 (pEC50) in assay [1] is 8.76. Besides, the negative-log IC50 (pIC50) in assay [2] is 7.35.

Take `COc1ccc2c(N(C)c3cccc(-c4ccc(C(F)F)cc4)c3)nc3nnc(C)n3c2n1` [Example 133, N-(4′-(difluoromethyl)-[1,1′-biphenyl]-3-yl)-2-methoxy-N,9-dimethylpyrido[3,2-e][1,2,4]triazolo[4,3-a]pyrimidin-5-amine]: in assay [1], the negative-log EC50 (pEC50) was 8.70. Moreover, in assay [2], the negative logarithm of the IC50 (pIC50) is 7.28.

As to `Cc1nnc2nc(N3CCCCc4c(C#CC(C)(C)C(C)(F)F)cccc43)c3c(F)cncc3n12` [Example 63, 5-(6-(4,4-difluoro-3,3-dimethylpent-1-yn-1-yl)-2,3,4,5-tetrahydro-1H-benzo[b]azepin-1-yl)-6-fluoro-1-methylpyrido[4,3-e][1,2,4]triazolo[4,3-a]pyrimidine], the pEC50 in assay [1] was 8.96. Further, the negative logarithm of the IC50 (pIC50) in assay [2] is 7.94.

`Cc1nnc2nc(N3CCCc4c(C#CC5(C)CC5)cccc43)c3cc(F)cnc3n12` [Example 107, 3-fluoro-9-methyl-5-(5-((1-methylcyclopropyl)ethynyl)-3,4-dihydroquinolin-1(2H)-yl)pyrido[3,2-e][1,2,4]triazolo[4,3-a]pyrimidine]: the pEC50 in assay [1] is 8.73. Besides, the pIC50 in assay [2] is 7.93.
